Reference: PMC3983352 (Journal of Medicinal Chemistry, 2014)

Columns and labels:
HDAC1 Y23A = HDAC1 Y23A (Homo sapiens, UniProt Q13547, Y23A); experiment: Acetate inhibition assay; type: biochemical
HDAC1 F205Y = HDAC1 F205Y (Homo sapiens, UniProt Q13547, F205Y); experiment: Acetate inhibition assay; type: biochemical
wild-type HDAC1 = wild-type HDAC1 (Homo sapiens, UniProt Q13547); experiment: Acetate inhibition assay; type: biochemical; conditions: at least three independent trials, standard error
HDAC1 R36A = HDAC1 R36A (Homo sapiens, UniProt Q13547, R36A); experiment: Acetate inhibition assay; type: biochemical
HDAC1 C151A = HDAC1 C151A (Homo sapiens, UniProt Q13547, C151A); experiment: Acetate inhibition assay; type: biochemical
HDAC1 Y24A = HDAC1 Y24A (Homo sapiens, UniProt Q13547, Y24A); experiment: Acetate inhibition assay; type: biochemical
[1] = tested on: recombinant HDAC8 wild type; conditions: acetate inhibition; cited from earlier work
HDAC1 R34A = HDAC1 R34A (Homo sapiens, UniProt Q13547, R34A); experiment: Acetate inhibition assay; type: biochemical
HDAC8 R37A = HDAC8 R37A vs HDAC8 wild type; cited from earlier work

Chain of HDAC1 C151A (Q13547 whole entry C151A): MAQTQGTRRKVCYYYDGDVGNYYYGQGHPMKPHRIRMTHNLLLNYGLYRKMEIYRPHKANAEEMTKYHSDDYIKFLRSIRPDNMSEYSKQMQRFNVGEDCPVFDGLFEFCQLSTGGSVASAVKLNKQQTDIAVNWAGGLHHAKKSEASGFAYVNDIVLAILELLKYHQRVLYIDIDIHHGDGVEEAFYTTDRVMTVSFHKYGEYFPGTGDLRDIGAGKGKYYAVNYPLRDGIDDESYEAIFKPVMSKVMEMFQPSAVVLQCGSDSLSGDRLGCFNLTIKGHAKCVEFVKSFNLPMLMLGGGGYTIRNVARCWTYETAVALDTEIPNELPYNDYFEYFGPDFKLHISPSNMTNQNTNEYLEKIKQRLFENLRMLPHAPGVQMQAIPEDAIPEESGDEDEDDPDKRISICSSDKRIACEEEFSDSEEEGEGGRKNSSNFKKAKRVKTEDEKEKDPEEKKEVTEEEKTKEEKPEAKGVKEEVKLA
Chain of HDAC1 Y23A (Q13547 whole entry Y23A): as the sequence (Q13547 whole entry C151A) above, with Y23A, A151C counted along it
Chain of HDAC1 R36A (Q13547 whole entry R36A): as the sequence (Q13547 whole entry C151A) above, with R36A, A151C counted along it
Chain of HDAC1 R34A (Q13547 whole entry R34A): as the sequence (Q13547 whole entry C151A) above, with R34A, A151C counted along it
Chain of HDAC1 Y24A (Q13547 whole entry Y24A): as the sequence (Q13547 whole entry C151A) above, with Y24A, A151C counted along it
Chain of HDAC1 F205Y (Q13547 whole entry F205Y): as the sequence (Q13547 whole entry C151A) above, with A151C, F205Y counted along it
Chain of wild-type HDAC1 (Q13547 whole entry): as the sequence (Q13547 whole entry C151A) above, with A151C counted along it

fold reduction in acetate inhibition compared to the wild type (HDAC1 Y23A; HDAC1 Y23A vs wild type): roughly 3 fold
IC50 (HDAC1 Y23A; acetate inhibition, HDAC1 Y23A): 21 ± 1.5 mM
IC50 (HDAC1 F205Y): 8 ± 1.5 mM
IC50 (wild-type HDAC1): 7.2 ± 0.54 mM
fold reduction in acetate inhibition compared to the wild type (HDAC1 R36A; HDAC1 R36A vs wild type): roughly 2 fold
IC50 (HDAC1 R36A; acetate inhibition, HDAC1 R36A): 16 ± 1.3 mM
fold reduction in acetate inhibition compared to the wild type (HDAC1 C151A; HDAC1 C151A vs wild type): roughly 2 fold
IC50 (HDAC1 C151A; acetate inhibition, HDAC1 C151A): 13 ± 1.1 mM
fold reduction in acetate inhibition compared to the wild type (HDAC1 Y24A; HDAC1 Y24A vs wild type): roughly 3 fold
IC50 (HDAC1 Y24A; acetate inhibition, HDAC1 Y24A): 19 ± 1.1 mM
fold reduction in acetate inhibition compared to the wild type (HDAC1 R34A; HDAC1 R34A vs wild type): roughly 3 fold
IC50 (HDAC1 R34A; acetate inhibition, HDAC1 R34A): 21 ± 1.6 mM
SMILES: CC(=O)[O-].[Na+] [acetate, sodium acetate]
IC50 [1]: 2.5 mM
fold reduction of acetate inhibition compared to wild type (HDAC8 R37A): 160 fold
